For the assay, the target named is T1, N-type Ca2+ channels in IMR-32 cells (Homo sapiens, UniProt Q00975).
T1 construct: host or cells: IMR-32 cells, differentiated with dibutyryl cAMP and bromodeoxyuridine
Briefly: Inhibition of N-type calcium flux in IMR-32 cells (Indo-1 fluorescence, nitrendipine present). Type of assay: cell-based. The conditions noted are these: for inhibition at 1 µM / inhibition at 10 µM: IMR-32; for IC50: IMR-32 cells, 5 μM nitrendipine, K+ depolarization. In outline:
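Differentiated IMR-32 cells (7–13 days) were loaded with 5 μM Indo-1 AM, preincubated with compound for 10 min at 30° C, and depolarized with KCl/CaCl2 stimulation solution, with 5 μM nitrendipine blocking L-channels. Peak-minus-basal 400/490 nm emission ratio was plotted against drug concentration, and IC50 came from four-parameter logistic fits.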
Background: Calcium flux is commonly read through the fluorescence of an indicator in the cells.

Usually inhibition stands for the percentage by which the read-out fell short of the control. A word on the IC50: it is the concentration that inhibits the measured activity by half.

*1 amine or outer side, *2 acyl side, *3 side chain or, on linkers, in order; H or OH if unused. Where a SMILES comes first, the peptide text is derived from it. The star is where a group is joined. Piperidide = C1CCN(*)CC1; CO = O=C([*:1])[*:2]; Bn = c1ccc(C*)cc1; OtBu = CC(C)(C)O*

T1 sequence (Q00975 whole entry): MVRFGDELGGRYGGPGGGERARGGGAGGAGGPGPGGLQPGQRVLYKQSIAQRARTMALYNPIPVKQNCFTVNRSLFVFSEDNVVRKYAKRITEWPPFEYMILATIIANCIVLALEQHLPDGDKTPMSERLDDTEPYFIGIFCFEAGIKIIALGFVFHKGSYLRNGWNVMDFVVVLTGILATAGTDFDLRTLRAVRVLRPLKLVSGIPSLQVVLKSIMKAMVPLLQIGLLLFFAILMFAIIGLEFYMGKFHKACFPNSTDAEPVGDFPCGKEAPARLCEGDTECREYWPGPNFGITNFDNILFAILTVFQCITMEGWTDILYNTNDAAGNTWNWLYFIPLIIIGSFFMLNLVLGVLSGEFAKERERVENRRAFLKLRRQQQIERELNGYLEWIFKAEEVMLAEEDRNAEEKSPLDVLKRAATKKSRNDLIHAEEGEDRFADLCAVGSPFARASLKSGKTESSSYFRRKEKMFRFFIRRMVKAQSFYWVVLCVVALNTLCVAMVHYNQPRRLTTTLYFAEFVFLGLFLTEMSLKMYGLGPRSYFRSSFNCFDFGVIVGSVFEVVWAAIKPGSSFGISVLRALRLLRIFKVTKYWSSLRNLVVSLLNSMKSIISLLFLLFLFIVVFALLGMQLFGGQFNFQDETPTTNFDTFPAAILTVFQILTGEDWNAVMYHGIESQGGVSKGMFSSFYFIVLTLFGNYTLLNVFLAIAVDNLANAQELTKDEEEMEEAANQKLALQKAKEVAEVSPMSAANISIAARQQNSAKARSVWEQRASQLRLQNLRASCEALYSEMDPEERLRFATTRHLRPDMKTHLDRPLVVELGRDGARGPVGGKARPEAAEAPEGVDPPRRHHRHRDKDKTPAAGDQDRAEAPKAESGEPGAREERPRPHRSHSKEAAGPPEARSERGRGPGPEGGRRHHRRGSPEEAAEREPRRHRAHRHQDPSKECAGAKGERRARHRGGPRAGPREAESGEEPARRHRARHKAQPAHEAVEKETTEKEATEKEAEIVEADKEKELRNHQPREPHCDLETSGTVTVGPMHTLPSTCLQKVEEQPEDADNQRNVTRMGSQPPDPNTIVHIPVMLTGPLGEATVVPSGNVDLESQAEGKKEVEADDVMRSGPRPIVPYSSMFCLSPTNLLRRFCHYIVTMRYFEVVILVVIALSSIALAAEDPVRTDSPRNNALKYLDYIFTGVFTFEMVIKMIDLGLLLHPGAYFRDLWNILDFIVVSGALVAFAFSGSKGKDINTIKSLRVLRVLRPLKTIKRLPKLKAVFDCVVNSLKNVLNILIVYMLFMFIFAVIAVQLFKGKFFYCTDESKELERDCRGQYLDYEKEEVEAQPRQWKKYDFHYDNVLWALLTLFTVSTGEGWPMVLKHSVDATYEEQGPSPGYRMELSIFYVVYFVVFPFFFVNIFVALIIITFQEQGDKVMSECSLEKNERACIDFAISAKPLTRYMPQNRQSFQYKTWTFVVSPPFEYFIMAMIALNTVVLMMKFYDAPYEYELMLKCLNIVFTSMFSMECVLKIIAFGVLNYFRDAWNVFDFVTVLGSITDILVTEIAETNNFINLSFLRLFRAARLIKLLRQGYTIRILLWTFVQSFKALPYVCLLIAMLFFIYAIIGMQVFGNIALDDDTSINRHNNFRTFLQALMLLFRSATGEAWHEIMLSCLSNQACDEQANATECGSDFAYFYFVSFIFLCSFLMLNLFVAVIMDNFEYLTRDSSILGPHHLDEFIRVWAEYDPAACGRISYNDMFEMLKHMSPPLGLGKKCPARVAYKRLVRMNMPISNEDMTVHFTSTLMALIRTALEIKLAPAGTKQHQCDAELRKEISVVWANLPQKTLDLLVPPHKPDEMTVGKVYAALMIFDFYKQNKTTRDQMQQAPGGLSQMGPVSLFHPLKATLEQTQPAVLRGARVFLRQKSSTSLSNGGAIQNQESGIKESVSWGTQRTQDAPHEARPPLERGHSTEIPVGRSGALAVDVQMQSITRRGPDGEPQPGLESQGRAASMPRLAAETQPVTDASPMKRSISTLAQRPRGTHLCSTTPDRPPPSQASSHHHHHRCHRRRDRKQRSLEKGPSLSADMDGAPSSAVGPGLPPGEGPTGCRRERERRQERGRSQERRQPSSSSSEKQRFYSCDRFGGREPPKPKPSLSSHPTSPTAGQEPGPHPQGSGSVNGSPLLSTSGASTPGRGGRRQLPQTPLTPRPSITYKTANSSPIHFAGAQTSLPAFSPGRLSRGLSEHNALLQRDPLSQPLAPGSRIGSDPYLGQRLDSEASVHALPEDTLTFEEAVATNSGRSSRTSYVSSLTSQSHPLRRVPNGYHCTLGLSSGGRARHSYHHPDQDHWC
T1 sequence (P54289 25-956 partner limits assumed): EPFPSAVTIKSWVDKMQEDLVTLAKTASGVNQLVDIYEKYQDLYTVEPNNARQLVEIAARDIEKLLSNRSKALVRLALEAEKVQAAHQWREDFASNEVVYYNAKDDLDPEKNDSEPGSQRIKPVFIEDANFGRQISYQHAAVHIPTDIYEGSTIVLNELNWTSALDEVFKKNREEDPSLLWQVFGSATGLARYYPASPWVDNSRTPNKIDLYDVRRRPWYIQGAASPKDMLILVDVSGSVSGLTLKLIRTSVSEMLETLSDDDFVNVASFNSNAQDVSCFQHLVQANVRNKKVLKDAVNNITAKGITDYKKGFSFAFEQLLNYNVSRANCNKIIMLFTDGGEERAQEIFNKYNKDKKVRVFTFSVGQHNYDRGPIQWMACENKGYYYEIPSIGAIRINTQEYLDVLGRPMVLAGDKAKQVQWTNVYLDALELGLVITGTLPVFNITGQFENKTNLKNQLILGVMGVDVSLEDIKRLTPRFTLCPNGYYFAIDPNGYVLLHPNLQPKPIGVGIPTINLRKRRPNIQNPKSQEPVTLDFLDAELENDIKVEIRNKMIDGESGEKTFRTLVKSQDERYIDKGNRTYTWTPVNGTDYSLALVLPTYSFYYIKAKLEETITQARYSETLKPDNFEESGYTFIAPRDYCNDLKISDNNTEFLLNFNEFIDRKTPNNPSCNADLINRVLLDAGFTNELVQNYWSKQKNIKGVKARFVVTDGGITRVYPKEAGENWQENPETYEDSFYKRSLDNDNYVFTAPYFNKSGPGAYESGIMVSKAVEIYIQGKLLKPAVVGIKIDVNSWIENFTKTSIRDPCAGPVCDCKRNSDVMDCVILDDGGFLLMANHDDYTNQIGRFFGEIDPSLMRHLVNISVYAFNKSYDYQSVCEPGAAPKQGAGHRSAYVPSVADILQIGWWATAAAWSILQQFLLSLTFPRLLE
T1 sequence (P54289 957-1103 partner limits assumed): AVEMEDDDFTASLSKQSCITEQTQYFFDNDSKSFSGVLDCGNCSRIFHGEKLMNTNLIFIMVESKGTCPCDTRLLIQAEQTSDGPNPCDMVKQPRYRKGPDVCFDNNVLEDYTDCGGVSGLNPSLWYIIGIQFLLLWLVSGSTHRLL
T1 sequence (P54284 whole entry partner): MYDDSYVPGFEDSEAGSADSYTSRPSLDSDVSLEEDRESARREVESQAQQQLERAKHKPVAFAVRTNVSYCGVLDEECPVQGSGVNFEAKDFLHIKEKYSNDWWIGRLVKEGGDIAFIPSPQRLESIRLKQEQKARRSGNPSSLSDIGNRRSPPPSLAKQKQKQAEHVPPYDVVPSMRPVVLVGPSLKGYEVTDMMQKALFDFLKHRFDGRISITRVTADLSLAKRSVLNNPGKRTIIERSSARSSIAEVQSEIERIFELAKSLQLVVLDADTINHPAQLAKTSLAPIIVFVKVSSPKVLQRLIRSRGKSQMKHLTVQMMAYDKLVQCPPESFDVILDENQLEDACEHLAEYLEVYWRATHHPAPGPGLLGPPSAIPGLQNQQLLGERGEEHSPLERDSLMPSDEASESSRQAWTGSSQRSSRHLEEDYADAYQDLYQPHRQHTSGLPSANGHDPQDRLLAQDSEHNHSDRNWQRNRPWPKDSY

For the compound `CC(C)[C@H](NC(=O)N1CCCCCC1)C(=O)N[C@@H](Cc1ccc(OCc2ccccc2)cc1)C(=O)OC(C)(C)C` [Example 6, [S-(R*,R*)]-2-{2-[(Azepane-1-carbonyl)-amino]-3-methyl-butyrylamino}-3-(4-benzyloxy-phenyl)-propionic acid tert-butyl ester], the inhibition at 1 µM came to 63%, the inhibition at 10 µM amounted to 98% and the half-maximal inhibitory concentration (IC50) turned out to be 720 nM.

Take `CC(C)C[C@H](NC(=O)N1CCCCCC1)C(=O)N[C@@H](Cc1ccc(OCc2ccc(C#N)cc2)cc1)C(=O)OC(C)(C)C` [Example 27, [S-(R*,R*)]-2-{2-[(Azepane-1-carbonyl)-amino]-4-methyl-pentanoylamino}-3-[4-(4-cyano-benzyloxy)-phenyl]-propionic acid tert-butyl ester]: the inhibition at 1 µM came out at 51%, the inhibition at 10 µM was found to be 92% and the IC50 worked out at 810 nM.

`COc1ccc(COc2ccc(C[C@H](NC(=O)[C@H](CC(C)C)NC(=O)N3CCCCCC3)C(=O)OC(C)(C)C)cc2)cc1` [Example 32, [S-(R*,R*)]-2-{2-[(Azepane-1-carbonyl)-amino]-4-methyl-pentanoylamino}-3-[4-(4-methoxy-benzyloxy)-phenyl]-propionic acid tert-butyl ester]: the inhibition at 1 µM was determined as 52%, the inhibition at 10 µM was 86% and the half-maximal inhibitory concentration (IC50) was 820 nM.

`CC(C)C[C@H](NC(=O)N1CCCCC1)C(=O)N[C@@H](Cc1ccc(OCc2ccccc2)cc1)C(=O)OC(C)(C)C` [Example 33, [S-(R*,R*)]-3-(4-Benzyloxy-phenyl)-2-{4-methyl-2-[(piperidine-1-carbonyl)-amino]-pentanoylamino}-propionic acid tert-butyl ester] ({Piperidide-CO}-Leu-Tyr(Bn)-OtBu): the inhibition at 1 µM amounted to 48%, the inhibition at 10 µM was determined as 79% and the IC50 came to 2200 nM.

Turning to `CC(C)C[C@H](NC(=O)N[C@H](C)c1ccccc1)C(=O)N[C@@H](Cc1ccc(OCc2ccccc2)cc1)C(=O)OC(C)(C)C` [Example 63, 3-(4-Benzyloxy-phenyl)-(S)-2-{4-methyl-(S)-2-[3-[(R)-1-phenyl-ethyl]-ureido]-pentanoylamino}-propionic acid tert-butyl ester], the inhibition at 1 µM worked out at 33%.

In the case of `COC(=O)C(Cc1ccccc1)NC(=O)NC(CC(C)C)C(=O)NC(Cc1ccc(OCc2ccccc2)cc1)C(=O)OC(C)(C)C` (stereo not drawn) [Example 66, [S-(R*,R*)]-3-(4-Benzyloxy-phenyl)-{2-[3-(1-methoxycarbonyl-2-phenyl-ethyl)-ureido]-4-methyl-pentanoylamino}-propionic acid tert-butyl ester] ({OMe-Phe-CO}-Leu-Tyr(Bn)-OtBu; configuration not given here), the “Inhibition of Calcium Flux in IMR-32 Cells % Inhibition at 1 μM” value (1 μM) amounted to 42%.

Turning to `Cc1noc(C)c1S(=O)(=O)N[C@@H](CC(C)C)C(=O)N[C@@H](Cc1ccc(OCc2ccccc2)cc1)C(=O)OC(C)(C)C` [Example 111, [S-(R*,R*)]-3-(4-Benzyloxy-phenyl)-2-[2-(3,5-dimethyl-isoxazole-4-sulfonylamino)-4-methyl-pentanoylamino]-propionic acid tert-butyl ester], the inhibition at 1 µM came to 50%, the inhibition at 10 µM was determined as 96% and the half-inhibitory concentration (IC50) came to 1100 nM.

Take `O=C(NCCN1CCCCC1)[C@H](Cc1ccc(OCc2ccccc2)cc1)NC(=O)[C@@H]1CCCN1C(=O)N1CCCCCC1` [Example 152, [S-(R*,R*)]-1-(Azepane-1-carbonyl)-pyrrolidine-2-carboxylic acid [2-(4-benzyloxy-phenyl)-1-(2-piperidin-1-yl-ethylcarbamoyl)-ethyl]-amide]: the IC50 was 1900 nM.

For `CC(C)(C)NC(=O)[C@H](Cc1ccc(OCc2ccccc2)cc1)NC(=O)[C@@H]1CCCN1C(=O)N1CCCCCC1` [Example 153, [S-(R*,R*)]-1-(Azepane-1-carbonyl)-pyrrolidine-2-carboxylic acid [2-(4-benzyloxy-phenyl)-1tert-butylcarbamoyl-ethyl]-amide], the half-inhibitory concentration (IC50) was 3700 nM.

(Values after patent publication US6423689B1, “Peptidyl calcium channel blockers” (Warner-Lambert Company, priority 1997, dated 2002).)
